Target: T1, hα4 and β1 integrins (Homo sapiens, UniProt P05556+P13612)
T1 construct: expressed in transfected cells; host or cells: CHO cells
Test: In vitro inhibition of binding between CHO cells expressing hα4 and β1 integrins and Eu3+-hVCAM-1 D1D7-IgG
Conditions: for Ki: CHO cells expressing hα4 and β1 integrins, Eu3+-hVCAM-1 D1D7-IgG ligand, without HSA; for IC50: in the presence of 3% human serum albumin (HSA final concentration 3%)
Protocol: CHO cells which forcibly expressed hα4 and β1 integrins through transfection thereof, were inoculated into a Costar 3599 plate (3×10^4 cells/100 μl/well), and cultured for two days. The cells in the wells were washed two times with buffer A*, and then Eu^3+-hVCAM-1 D1D7-IgG diluted with assay buffer** to 2 nM was added in an amount of 50 μl/well. The substance under test diluted with 26 DMSO-assay buffer (in the co-presence or absence of 6% human serum albumin) was added in an amount of 50 μl/well (adding separately diluted solution to the wells for performing Scatchard analysis), the contents were stirred for 5 minutes with a plate mixer, and then the plate was left to stand still for one hour at room temperature. The binding inhibitory activity in the presence of human serum albumin (HSA) was examined by diluting the specimen with 26 DMSO-assay buffer containing 6% HSA (SIGMA Corp., c/n A-1653), and adding the resultant (HSA final concentration 3%). After 30 to 60 minutes of the addition of specimen, the plate contents were washed 4 times with buffer A at 4° C., an enhancing reagent (DELFIA SA) was added in an amount of 100 μl/well, and the plate was shaken for 5 minutes using a plate mixer. Subsequently, the fluorescence intensity was measured with a time-resolved fluorometer (DELFIA Wallac). The IC50 of the substance under test (the concentration for 50% inhibition of the binding between CHO cells and Eu^3+-hVCAM-1 D1D7-IgG) was determined from the binding rate obtained from the calculating expression of [(FT−FNS)−(FI−FNS)]/[(FT−FNS)]×100. Here, FT represents the fluorescence intensity of a well not containing the substance under test; FNS represents the fluorescence intensity of a well not containing the substance under test and hVCAM-1 D1D7-IgG; and FI represents the fluorescence intensity of a well containing the substance under test. The Kd value which represents the strength of binding, and Bmax (maximum binding amount) were estimated to be in the range of 0.06 to 20 nM according to the Scatchard analysis method. The evaluation results of the Ki value of the substance under test, and of the IC50 value in the presence of 3% HSA are presented in Tables 2 to 7.
The Ki value was calculated according to the above-described expression. ([L] is the ligand concentration)
[* buffer A: 25 mM HEPES (pH 7.5), 150 mM NaCl, 1 mM Ca^2+, 1 mM Mg^2+, 4 mM Mn2+;
** assay buffer: 25 mM HEPES (pH=7.5), 150 mM NaCl, 1 mM Ca^2+, 1 mM Mg^2+, 4 mM Mn^2+, 0.1% BSA, 20 μM DTPA, with/without 6% ALBUMIN, HUMAN SERUM (C/N A-1653, SIGMA)]

T1 sequence (P13612 34-1032): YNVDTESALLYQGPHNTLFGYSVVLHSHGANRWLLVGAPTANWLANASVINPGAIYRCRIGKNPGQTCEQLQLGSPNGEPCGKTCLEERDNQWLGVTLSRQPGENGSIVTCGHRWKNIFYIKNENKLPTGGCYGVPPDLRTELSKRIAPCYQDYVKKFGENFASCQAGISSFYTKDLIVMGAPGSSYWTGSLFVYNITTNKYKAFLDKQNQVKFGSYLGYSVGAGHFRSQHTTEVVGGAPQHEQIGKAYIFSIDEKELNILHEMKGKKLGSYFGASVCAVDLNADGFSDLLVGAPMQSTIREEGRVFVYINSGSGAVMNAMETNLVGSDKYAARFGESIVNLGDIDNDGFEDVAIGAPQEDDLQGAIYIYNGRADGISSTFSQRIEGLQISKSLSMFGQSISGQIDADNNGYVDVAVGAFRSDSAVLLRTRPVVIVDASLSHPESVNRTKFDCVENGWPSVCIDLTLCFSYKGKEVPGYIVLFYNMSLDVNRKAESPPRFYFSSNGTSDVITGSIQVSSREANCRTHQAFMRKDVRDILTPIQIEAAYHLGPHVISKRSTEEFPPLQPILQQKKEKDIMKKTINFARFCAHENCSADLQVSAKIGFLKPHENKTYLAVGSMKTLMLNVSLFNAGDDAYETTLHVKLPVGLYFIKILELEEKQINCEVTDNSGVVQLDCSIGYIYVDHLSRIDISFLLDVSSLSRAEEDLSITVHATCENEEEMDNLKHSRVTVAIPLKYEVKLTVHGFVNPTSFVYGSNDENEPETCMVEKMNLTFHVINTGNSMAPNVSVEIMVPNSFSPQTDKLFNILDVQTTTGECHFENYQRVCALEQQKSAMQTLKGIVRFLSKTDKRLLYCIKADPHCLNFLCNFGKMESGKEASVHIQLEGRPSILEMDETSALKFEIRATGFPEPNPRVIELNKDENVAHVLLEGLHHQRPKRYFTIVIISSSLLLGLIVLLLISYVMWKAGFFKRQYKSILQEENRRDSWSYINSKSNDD
T1 sequence (P05556 21-798): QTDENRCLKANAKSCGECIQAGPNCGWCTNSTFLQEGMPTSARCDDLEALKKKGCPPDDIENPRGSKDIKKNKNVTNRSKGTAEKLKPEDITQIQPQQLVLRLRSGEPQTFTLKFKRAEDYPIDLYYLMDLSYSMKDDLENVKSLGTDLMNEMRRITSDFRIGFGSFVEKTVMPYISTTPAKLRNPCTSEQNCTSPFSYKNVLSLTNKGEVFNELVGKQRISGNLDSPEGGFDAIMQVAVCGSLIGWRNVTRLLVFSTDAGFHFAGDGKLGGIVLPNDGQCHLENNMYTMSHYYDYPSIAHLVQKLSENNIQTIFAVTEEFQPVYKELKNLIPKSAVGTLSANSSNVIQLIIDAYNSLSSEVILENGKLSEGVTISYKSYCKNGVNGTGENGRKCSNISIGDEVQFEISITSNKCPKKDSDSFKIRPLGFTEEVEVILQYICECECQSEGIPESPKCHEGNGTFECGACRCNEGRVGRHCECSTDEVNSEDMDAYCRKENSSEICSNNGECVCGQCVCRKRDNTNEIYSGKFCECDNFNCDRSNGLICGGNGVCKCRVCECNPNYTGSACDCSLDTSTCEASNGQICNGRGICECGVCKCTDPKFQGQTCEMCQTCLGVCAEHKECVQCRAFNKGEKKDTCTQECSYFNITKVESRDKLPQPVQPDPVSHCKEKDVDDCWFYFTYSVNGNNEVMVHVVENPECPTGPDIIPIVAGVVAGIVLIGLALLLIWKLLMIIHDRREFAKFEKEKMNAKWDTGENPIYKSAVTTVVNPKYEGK

Row | Ki [nM] | IC50 [nM] | Compound
1 | 2.7 | 7.5 | Cn1cc(C(=O)Nc2ccc(CC(=O)N3C[C@@H](N4CCN(CC(F)(F)F)CC4)C[C@H]3CO[C@H]3CC[C@H](C(=O)O)CC3)cc2Cl)c2ccccc21 [Example 130, Trans-4-[1-[[3-chloro-4-[(1-methyl-1H-indol-3-ylcarbonyl)amino]phenyl]acetyl]-(4S)-[4-(2,2,2-trifluoroethyl)piperazin-1-yl]-(2S)-pyrrolidinylmethoxy]cyclohexanecarboxylic acid]
2 | 2.6 | 11 | CS(=O)(=O)N1CCCN([C@H]2C[C@@H](CO[C@H]3CC[C@H](C(=O)O)CC3)N(C(=O)Cc3cc(Cl)c(NC(=O)c4coc5ccccc45)cc3F)C2)CC1 [Example 170, Trans-4-[1-[[4-[(benzo[b]furan-3-ylcarbonyl)amino]-5-chloro-2-fluorophenyl]acetyl]-(4S)-(4-methanesulfonyl[1,4]-diazepan-1-yl)-(2S)-pyrrolidinylmethoxy]cyclohexanecarboxylic acid]
3 | 3.9 | 11 | CN1CCN([C@H]2C[C@@H](CO[C@H]3CC[C@H](C(=O)O)CC3)N(C(=O)Cc3cc(Cl)c(NC(=O)c4cn(C)c5ccccc45)cc3Cl)C2)CC1=O [Example 152, Trans-4-[1-[[2,5-dichloro-4-[(1-methyl-1H-indol-3-ylcarbonyl)amino]phenyl]acetyl]-(4S)-(4-methyl-3-oxopiperazin-1-yl)-(2S)-pyrrolidinylmethoxy]cyclohexanecarboxylic acid]
4 | 4 | 17 | Cn1cc(C(=O)Nc2cc(F)c(CC(=O)N3C[C@@H](N4CCC(F)(F)CC4)C[C@H]3CO[C@H]3CC[C@H](C(=O)O)CC3)cc2Cl)c2ccccc21 [Example 101, Trans-4-[1-[[5-chloro-2-fluoro-4-[(1-methyl-1H-indol-3-ylcarbonyl)amino]phenyl]acetyl]-(4S)-(4,4-difluoropiperidin-1-yl)-(2S)-pyrrolidinylmethoxy]cyclohexanecarboxylic acid]
5 | 4.2 | 13 | Cn1cc(C(=O)Nc2cc(Cl)c(CC(=O)N3C[C@@H](N4CCN(CC5CC5)CC4)C[C@H]3CO[C@H]3CC[C@H](C(=O)O)CC3)cc2Cl)c2ccccc21 [Example 115, Trans-4-[1-[[2,5-dichloro-4-[(1-methyl-1H-indol-3-ylcarbonyl)amino]phenyl]acetyl]-(4S)-[(4-cyclopropylmethyl)piperazin-1-yl]-(2S)-pyrrolidinylmethoxy]cyclohexanecarboxylic acid]
6 | 3.6 | 22 | C[C@@H]1COC[C@H](C)N1[C@H]1C[C@@H](CO[C@H]2CC[C@H](C(=O)O)CC2)N(C(=O)Cc2cc(Cl)c(NC(=O)c3cn(C)c4ccccc34)cc2Cl)C1 [Example 93, Trans-4-[1-[[2,5-dichloro-4-[(1-methyl-1H-indol-3-ylcarbonyl)amino]phenyl]acetyl]-(4S)-(cis-3,5-dimethylmorpholin-4-yl)-(2S)-pyrrolidinylmethoxy]cyclohexanecarboxylic acid]
7 | 6.5 | 49 | Cn1cc(C(=O)Nc2cc(Cl)c(CC(=O)N3C[C@@H](N4CC5CC4CO5)C[C@H]3CO[C@H]3CC[C@H](C(=O)O)CC3)cc2Cl)c2ccccc21 (stereo partly drawn) [Example 162, Trans-4-[1-[[2,5-dichloro-4-[1-methyl-1H-indol-3-ylcarbonylamino]phenyl]acetyl]-(4S)-[(1S,4S)-2-oxa-5-azabicyclo[2.2.1]heptan-5-yl]-(2S)-pyrrolidinylmethoxy]cyclohexanecarboxylic acid]
8 | 8.8 | 36 | Cn1cc(C(=O)Nc2cc(Cl)c(CC(=O)N3C[C@@H](N4CCN(CC(F)(F)F)CC4)C[C@H]3CO[C@H]3CC[C@H](C(=O)O)CC3)cc2Cl)c2ccccc21 [Example 122, Trans-4-[1-[[2,5-dichloro-4-[(1-methyl-1H-indol-3-ylcarbonyl)amino]phenyl]acetyl]-(4S)-[4-(2,2,2-trifluoroethyl)piperazin-1-yl]-(2S)-pyrrolidinylmethoxy]cyclohexanecarboxylic acid]
9 | 6.1 | 66 | Cn1cc(C(=O)Nc2cc(F)c(CC(=O)N3C[C@@H](N4CCCO4)C[C@H]3CO[C@H]3CC[C@H](C(=O)O)CC3)cc2Cl)c2ccccc21 [Example 69, Trans-4-[1-[[5-chloro-2-fluoro-4-[(1-methyl-1H-indol-3-ylcarbonyl)amino]phenyl]acetyl]-(4S)-(isoxazolidin-2-yl)-(2S)-pyrrolidinylmethoxy]cyclohexanecarboxylic acid]
10 | 1.8 | 10 | O=C(Nc1cc(F)c(CC(=O)N2C[C@@H](N3CCN(CC(F)(F)F)CC3)C[C@H]2CO[C@H]2CC[C@H](C(=O)O)CC2)cc1Cl)c1csc2ccccc12 [Example 123, Trans-4-[1-[[4-[(benzo[b]thiophen-3-ylcarbonyl)amino]-5-chloro-2-fluorophenyl]acetyl]-(4S)-[4-(2,2,2-trifluoroethyl)piperazin-1-yl]-(2S)-pyrrolidinylmethoxy]cyclohexanecarboxylic acid]

The next lines start with the molecule.

Row | Compound | Ki [nM] | IC50 [nM]
11 | CC1(C)O[C@H]2CN([C@H]3C[C@@H](CO[C@H]4CC[C@H](C(=O)O)CC4)N(C(=O)Cc4cc(Cl)c(NC(=O)c5csc6ccccc56)cc4Cl)C3)C[C@H]2O1 [Example 75, Trans-4-[1-[[4-[(benzo[b]thiophen-3-ylcarbonyl)amino]-2,5-dichlorophenyl]acetyl]-(4S)-[(3a,6a-cis)-2,2-dimethyltetrahydro[1,3]dioxo[4,5-c]pyrrol-5-yl]-(2S)-pyrrolidinylmethoxy]cyclohexanecarboxylic acid] | 0.52 | 12
12 | O=C(Nc1cc(Cl)c(CC(=O)N2C[C@@H](N3CCCOCC3)C[C@H]2CO[C@H]2CC[C@H](C(=O)O)CC2)cc1Cl)c1csc2ccccc12 [Example 166, Trans-4-[1-[[4-[(benzo[b]thiophen-3-ylcarbonyl)amino]-2,5-dichlorophenyl]acetyl]-(4S)-([1,4]-oxazepan-4-yl)-(2S)-pyrrolidinylmethoxy]cyclohexanecarboxylic acid] | 1.7 | 8.2
13 | O=C(Nc1cc(F)c(CC(=O)N2C[C@@H](n3ccnc3)C[C@H]2CO[C@H]2CC[C@H](C(=O)O)CC2)cc1Cl)c1csc2ccccc12 [Example 67, Trans-4-[1-[[4-[(benzo[b]thiophen-3-ylcarbonyl)amino]-5-chloro-2-fluorophenyl]acetyl]-(4S)-(imidazol-1-yl)-(2S)-pyrrolidinylmethoxy]cyclohexanecarboxylic acid] | 1.2 | 12
14 | O=C(Nc1cc(F)c(CC(=O)N2C[C@@H](N3CCCOCC3)C[C@H]2CO[C@H]2CC[C@H](C(=O)O)CC2)cc1Cl)c1coc2ccccc12 [Example 168, Trans-4-[1-[[4-[(benzo[b]furan-3-ylcarbonyl)amino]-5-chloro-2-fluorophenyl]acetyl]-(4S)-([1,4]-oxazepan-4-yl)-(2-S)-pyrrolidinylmethoxy]cyclohexanecarboxylic acid] | 2 | 9.4
15 | O=C(Nc1cc(F)c(CC(=O)N2C[C@@H](N3CCC(Oc4ccccc4)CC3)C[C@H]2CO[C@H]2CC[C@H](C(=O)O)CC2)cc1Cl)c1csc2ccccc12 [Example 102] | 1.2 | 33
16 | C[C@@H]1CN([C@H]2C[C@@H](CO[C@H]3CC[C@H](C(=O)O)CC3)N(C(=O)Cc3cc(Cl)c(NC(=O)c4coc5ccccc45)cc3F)C2)C[C@H](C)O1 [Example 84, Trans-4-[1-[[4-[(benzo[b]furan-3-ylcarbonyl)amino]-5-chloro-2-fluorophenyl]acetyl]-(4S)-(cis-2,6-dimethylmorpholin-4-yl)-(2S)-pyrrolidinylmethoxy]cyclohexanecarboxylic acid] | 2.4 | 23
17 | C[C@@H]1CN([C@H]2C[C@@H](CO[C@H]3CC[C@H](C(=O)O)CC3)N(C(=O)Cc3cc(Cl)c(NC(=O)c4csc5ccccc45)cc3Cl)C2)C[C@H](C)O1 [Example 82, Trans-4-[1-[[4-[(benzo[b]thiophen-3-ylcarbonyl)amino]-2,5-dichlorophenyl]acetyl]-(4S)-(cis-2,6-dimethylmorpholin-4-yl)-(2S)-pyrrolidinylmethoxy]cyclohexanecarboxylic acid] | 2.4 | 18

— US8129366B2, “VLA-4 inhibitory drug” (Daiichi Sankyo Company, Limited, priority 2005, dated 2012)
